The values below are quoted from earlier work in patent US9669048B2, “Stable pharmaceutical composition of 5-aza-2′-deoxycitidine” (Fresenius Kabi Oncology Limited, priority 2012, dated 2017).

The conditions of the data set: reconstituted/diluted solution.

For the compound `Nc1ncn([C@H]2CC(O)[C@@H](CO)O2)c(=O)n1` (stereo partly shown) [Decitabine, 5-aza-2′-deoxycitidine], the “Stability in aqueous media” value is listed as “highly unstable”.
